According to patent US20130040935A1, “CYCLIC KETO-ENOLS FOR THERAPY” (BAYER INTELLECTUAL PROPERTY GMBH, priority 2010, published 2013):
Read-outs that look alike come from different tables or passages of the source.

How the values were obtained:
[1] = target: T1, human ACC1 (acetyl-coenzyme A carboxylase alpha transcript variant 1) (Homo sapiens, UniProt Q13085); test: Human ACC1 enzyme assay, Assay B1 (ADP-Glo); type: biochemical
T1 construct: FLAG (C); made in house; host or cells: baculovirus-infected insect cells (Hi5)
Procedure: Essentially, the enzyme activity is measured by quantifying the adenosine diphosphate (ADP) formed as a byproduct of the enzyme reactions using the ADP-Glo™ detection system from Promega. In this test, initially the adenosine triphosphate (ATP) not consumed in the enzyme reaction is converted quantitatively with an adenylate cyclase (“ADP-GLO reagent”) into cAMP, the adenylate cyclase is then stopped and (“kinase detection reagent”) the ADP formed is subsequently converted into ATP, which is converted in a luciferase-based reaction into a glow luminescence signal.
The concentration of the hACC1 was adapted to the respective activity of the enzyme and adjusted such that the assay operated in the linear range. […] The amount of light emitted was taken as a measure for the amount of ADP formed and thus for the enzyme activity of the hACC1.

[2] = target: human ACC2 (acetyl-coenzyme A carboxylase 2) (Homo sapiens, UniProt O00763); test: Human ACC2 enzyme assay, Assay B2 (ADP-Glo);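 note: human ACC2 activity read as ADP product, detected by luciferase glow luminescence after residual ATP removal, enzyme near 2 ng/µl in linear range, detection steps at 22 °C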
human ACC2 (acetyl-coenzyme A carboxylase 2), sequence (O00763 27-2458 limits assumed): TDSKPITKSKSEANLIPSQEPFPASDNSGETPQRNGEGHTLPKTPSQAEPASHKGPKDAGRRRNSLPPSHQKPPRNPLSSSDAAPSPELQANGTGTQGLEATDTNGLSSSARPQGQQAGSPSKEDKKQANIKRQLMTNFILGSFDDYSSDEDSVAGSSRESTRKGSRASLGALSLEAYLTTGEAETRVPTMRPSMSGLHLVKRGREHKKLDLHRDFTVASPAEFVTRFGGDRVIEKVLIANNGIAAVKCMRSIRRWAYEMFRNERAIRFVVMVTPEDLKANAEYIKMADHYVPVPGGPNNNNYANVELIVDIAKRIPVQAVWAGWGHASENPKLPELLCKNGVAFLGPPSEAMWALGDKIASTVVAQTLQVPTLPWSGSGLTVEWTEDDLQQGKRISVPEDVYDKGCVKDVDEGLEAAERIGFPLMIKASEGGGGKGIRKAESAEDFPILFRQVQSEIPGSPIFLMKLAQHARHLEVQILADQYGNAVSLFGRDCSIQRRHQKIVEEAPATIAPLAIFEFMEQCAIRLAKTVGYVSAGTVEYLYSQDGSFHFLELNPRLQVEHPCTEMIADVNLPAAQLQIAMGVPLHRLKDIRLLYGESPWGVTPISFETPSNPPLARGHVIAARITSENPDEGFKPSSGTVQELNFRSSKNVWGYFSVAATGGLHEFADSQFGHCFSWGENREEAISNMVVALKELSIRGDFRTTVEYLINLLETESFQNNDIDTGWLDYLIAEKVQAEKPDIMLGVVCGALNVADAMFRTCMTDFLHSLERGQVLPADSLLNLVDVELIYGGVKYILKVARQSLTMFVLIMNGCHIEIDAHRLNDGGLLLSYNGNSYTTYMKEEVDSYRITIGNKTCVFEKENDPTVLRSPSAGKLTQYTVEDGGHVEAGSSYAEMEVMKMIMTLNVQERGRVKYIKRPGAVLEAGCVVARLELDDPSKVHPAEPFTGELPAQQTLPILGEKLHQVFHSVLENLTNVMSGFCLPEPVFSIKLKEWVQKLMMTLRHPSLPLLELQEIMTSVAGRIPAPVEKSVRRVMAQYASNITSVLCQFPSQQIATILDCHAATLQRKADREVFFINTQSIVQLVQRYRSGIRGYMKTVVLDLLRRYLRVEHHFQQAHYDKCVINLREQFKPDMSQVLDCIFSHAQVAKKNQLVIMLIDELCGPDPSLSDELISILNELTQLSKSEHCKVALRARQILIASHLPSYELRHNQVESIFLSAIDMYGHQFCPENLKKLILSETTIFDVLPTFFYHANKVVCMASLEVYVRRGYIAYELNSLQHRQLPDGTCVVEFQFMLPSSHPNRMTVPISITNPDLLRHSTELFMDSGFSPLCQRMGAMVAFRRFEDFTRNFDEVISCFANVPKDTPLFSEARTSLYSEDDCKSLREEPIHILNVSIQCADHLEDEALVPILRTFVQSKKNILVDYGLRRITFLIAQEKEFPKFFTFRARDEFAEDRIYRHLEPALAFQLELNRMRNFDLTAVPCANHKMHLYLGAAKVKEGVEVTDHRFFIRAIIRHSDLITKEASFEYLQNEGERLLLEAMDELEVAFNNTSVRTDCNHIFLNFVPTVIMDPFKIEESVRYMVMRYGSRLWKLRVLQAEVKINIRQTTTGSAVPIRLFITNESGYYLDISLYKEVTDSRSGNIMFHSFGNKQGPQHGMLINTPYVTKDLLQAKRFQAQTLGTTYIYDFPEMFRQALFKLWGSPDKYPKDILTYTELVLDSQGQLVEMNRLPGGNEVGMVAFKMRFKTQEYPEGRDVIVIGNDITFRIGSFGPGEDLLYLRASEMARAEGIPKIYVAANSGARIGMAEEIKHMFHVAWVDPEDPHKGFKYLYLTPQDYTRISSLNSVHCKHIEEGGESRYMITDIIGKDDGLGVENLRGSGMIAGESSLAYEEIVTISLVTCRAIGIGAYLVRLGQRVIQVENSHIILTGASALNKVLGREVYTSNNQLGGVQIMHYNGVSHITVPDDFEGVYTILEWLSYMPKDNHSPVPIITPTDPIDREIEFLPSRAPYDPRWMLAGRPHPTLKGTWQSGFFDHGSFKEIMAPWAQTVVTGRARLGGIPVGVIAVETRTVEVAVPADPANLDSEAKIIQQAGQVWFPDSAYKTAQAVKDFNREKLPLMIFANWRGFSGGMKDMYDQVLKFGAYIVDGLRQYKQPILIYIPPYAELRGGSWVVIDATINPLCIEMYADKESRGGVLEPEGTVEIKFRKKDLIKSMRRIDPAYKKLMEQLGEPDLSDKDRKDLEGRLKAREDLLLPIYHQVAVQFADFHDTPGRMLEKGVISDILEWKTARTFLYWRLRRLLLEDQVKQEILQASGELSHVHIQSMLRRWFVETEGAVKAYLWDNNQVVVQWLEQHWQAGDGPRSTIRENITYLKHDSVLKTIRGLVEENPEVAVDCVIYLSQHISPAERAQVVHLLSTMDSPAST

[3] = Assay B1, read-out: ACC 1 (=B1) IC50
[4] = Assay B1, ADP-Glo, read-out: ACC 1 (=B1) IC50

| Structure (SMILES) | IC50 [1, 3] | IC50 [2] | IC50 [1, 4] | IC50 [1] |
| --- | --- | --- | --- | --- |
| Cc1ccc(-c2ccc(Cl)cc2)cc1C1=C(O)C2(CCCC(C)C2)NC1=O (centres unmarked) [1-82, 3-(4′-chloro-4-methylbiphenyl-3-yl)-4-hydroxy-7-methyl-1-azaspiro[4.5]dec-3-en-2-one] | 539 nM | 1320 nM |  |  |
| CCCC1CCC2(CC1)NC(=O)C(c1cc(-c3ccc(Cl)cc3)ccc1C)=C2O (centres unmarked) [1-83, 3-(4′-chloro-4-methylbiphenyl-3-yl)-4-hydroxy-8-propyl-1-azaspiro[4.5]dec-3-en-2-one] | 582 nM | 1880 nM |  |  |
| Cc1ccc(-c2ccc(Cl)cc2)cc1C1=C(O)C2(CC2)NC1=O [1-84, 6-(4′-chloro-4-methylbiphenyl-3-yl)-7-hydroxy-4-azaspiro[2.4]hept-6-en-5-one] | 650 nM | > 20000 nM |  |  |
| Cc1ccc(-c2ccc(Cl)cc2)cc1C1=C(O)C2(CCCC2)NC1=O [1-85, 3-(4′-chloro-4-methylbiphenyl-3-yl)-4-hydroxy-1-azaspiro[4.4]non-3-en-2-one] | 251 nM | 9210 nM |  |  |
| Cc1ccc(-c2ccc(Cl)cc2)cc1C1=C(O)C(C)(C2CC2)NC1=O (centres unmarked) [1-86, 3-(4′-chloro-4-methylbiphenyl-3-yl)-5-cyclopropyl-4-hydroxy-5-methyl-1,5-dihydro-2H-pyrrol-2-one] | 575 nM | 6120 nM |  |  |
| CC[C@]1(OC)CC[C@@]2(CC1)NC(=O)C(c1c(C)ccc(-c3ccc(Cl)cc3)c1C)=C2O [1-88, (5r,8r)-3-(4′-chloro-2,4-dimethylbiphenyl-3-yl)-8-ethyl-4-hydroxy-8-methoxy-1-azaspiro[4.5]dec-3-en-2-one] |  | 11700 nM |  | 452 nM |
| CC[C@]1(OC)CC[C@@]2(CC1)NC(=O)C(c1c(C)ccc(-c3ccc(F)cc3)c1C)=C2O [1-89, (5r,8r)-8-ethyl-3-(4′-fluoro-2,4-dimethylbiphenyl-3-yl)-4-hydroxy-8-methoxy-1-azaspiro[4.5]dec-3-en-2-one] |  | 13600 nM |  | 2070 nM |
| Cc1ccc(-c2ccc(Cl)cc2)c(C)c1C1=C(O)C2(CCCC2)OC1=O [2-2, 3-(4′-chloro-2,4-dimethylbiphenyl-3-yl)-4-hydroxy-1-oxaspiro[4.4]non-32--en-2-one] |  | > 20000 nM |  | 2360 nM |
| Cc1cc(C)c(-c2ccc(Cl)cc2)c(C)c1C1=C(O)C(C)(C)OC1=O [2-5, 3-(4′-chloro-2,4,6-trimethylbiphenyl-3-yl)-4-hydroxy-5,5-dimethylfuran-2(5H)-one] |  | 7340 nM |  | 1260 nM |
| COCC1CCC2(CC1)OC(=O)C(c1cc(-c3ccc(Cl)cc3)ccc1Cl)=C2O (centres unmarked) [2-16, 3-(4,4′-dichlorobiphenyl-3-yl)-4-hydroxy-8-(methoxymethyl)-1-oxaspiro[4.5]dec-3-en-2-one] |  | 5310 nM |  | 138 nM |
| O=C1OC2(CCC3(CCCO3)CC2)C(O)=C1c1cc(-c2ccc(Cl)cc2)ccc1Cl (centres unmarked) [2-27, 3-(4,4′-dichlorobiphenyl-3-yl)-4-hydroxy-1,9-dioxadispiro[4.2.4.2]tetradec-3-en-2-one] |  | 7010 nM |  | 801 nM |
| CCCC1CCC2(CC1)OC(=O)C(c1cc(-c3ccc(Cl)cc3)ccc1C)=C2O (centres unmarked) [2-36, 3-(4′-chloro-4-methylbiphenyl-3-yl)-4-hydroxy-8-propyl-1-oxaspiro[4.5]dec-3-en-2-one] |  | 2410 nM |  | 447 nM |
| Cc1ccc(-c2ccc(Cl)cc2)cc1C1=C(O)C2(CCCCCC2)OC1=O [2-38, 3-(4′-chloro-4-methylbiphenyl-3-yl)-4-hydroxy-1-oxaspiro[4.6]undec-3-en-2-one] |  | 7380 nM |  | 393 nM |
| Cc1cc(C)c(-c2ccc(Cl)cc2)c(C)c1C1=C(O)C2(CCCC2)OC1=O [2-49, 3-(4′-chloro-2,4,6-trimethylbiphenyl-3-yl)-4-hydroxy-1-oxaspiro[4.4]non-3-en-2-one] |  | > 20000 nM |  | ≥ 20000 nM |
| Cc1ccc(-c2cccc(Cl)c2)cc1C1=C(O)C2(CCCCCC2)OC1=O [2-50, 3-(3′-chloro-4-methylbiphenyl-3-yl)-4-hydroxy-1-oxaspiro[4.6]undec-3-en-2-one] |  | 15400 nM |  | 1300 nM |
| COC1CCC2(CC1)SC(=O)C(c1cc(-c3ccc(Cl)cc3)ccc1C)=C2O (centres unmarked) [3-1, 3-(4′-chloro-4-methylbiphenyl-3-yl)-4-hydroxy-8-methoxy-1-thiaspiro[4.5]dec-3-en-2-one] |  | 15500 nM |  | 1410 nM |

Second part, led by results:

| IC50 [1, 3] | IC50 [2] | IC50 [1, 4] | Structure (SMILES) | IC50 [1] |
| --- | --- | --- | --- | --- |
|  | 15200 nM | 1140 nM | CCC1CCC2(CC1)OC(=O)C(c1cc(-c3ccc(Cl)cc3)ccc1C)=C2O (centres unmarked) [2-1, 3-(4′-chloro-4-methylbiphenyl-3-yl)-8-ethyl-4-hydroxy-1-oxaspiro[4.5]dec-3-en-2-one] |  |
|  | 4700 nM | 67 nM | Cc1ccc(-c2ccc(Cl)cc2)cc1C1=C(O)C2(CCCCC2)OC1=O [2-10, 3-(4′-chloro-4-methylbiphenyl-3-yl)-4-hydroxy-1-oxaspiro[4.5]dec-3-en-2-one] |  |
|  | 12400 nM | 1260 nM | COC1CCCC2(C1)OC(=O)C(c1cc(-c3ccc(Cl)cc3)c(C)cc1C)=C2O (centres unmarked) [2-11, 3-(4′-chloro-4,6-dimethylbiphenyl-3-yl)-4-hydroxy-7-methoxy-1-oxaspiro[4.5]dec-3-en-2-one] |  |
|  | > 20000 nM | 772 nM | COC1CCCC2(C1)OC(=O)C(c1cc(-c3ccc(Cl)cc3)ccc1C)=C2O (centres unmarked) [2-14, 3-(4′-chloro-4-methylbiphenyl-3-yl)-4-hydroxy-7-methoxy-1-oxaspiro[4.5]dec-3-en-2-one] |  |
|  | 8020 nM | 111 nM | Cc1ccc(-c2ccc(Cl)cc2)cc1C1=C(O)C2(CCC3(CC2)OCCO3)OC1=O [2-15, 11-(4′-chloro-4-methylbiphenyl-3-yl)-12-hydroxy-1,4,9-trioxadispiro[4.2.4.2]tetradec-11-en-10-one] |  |
|  | 13600 nM | 812 nM | COCCC1CCCC2(C1)OC(=O)C(c1cc(-c3ccc(Cl)cc3)ccc1Cl)=C2O (centres unmarked) [2-19, 3-(4,4′-dichlorobiphenyl-3-yl)-4-hydroxy-7-(2 methoxyethyl)-1-oxaspiro[4.5]dec-3-en-2-one] |  |
|  | 3000 nM | 206 nM | Cc1ccc(-c2ccc(Cl)cc2)cc1C1=C(O)C2(CCC3(CCCO3)CC2)OC1=O (centres unmarked) [2-29, 3-(4′-chloro-4-methylbiphenyl-3-yl)-4-hydroxy-1,9-dioxadispiro[4.2.4.2]tetradec-3-en-2-one] |  |
|  | 5270 nM | 162 nM | COC1CCC2(CC1)OC(=O)C(c1cc(-c3ccc(Cl)cc3)ccc1C)=C2O (centres unmarked) [2-39, 3-(4′-chloro-4-methylbiphenyl-3-yl)-4-hydroxy-8-methoxy-1-oxaspiro[4.5]dec-3-en-2-one] |  |
|  | 6590 nM | 425 nM | Cc1cc(C)c(-c2ccc(Cl)cc2)cc1C1=C(O)C2(CCOCC2)OC1=O [2-41, 3-(4′-chloro-4,6-dimethylbiphenyl-3-yl)-4-hydroxy-1,8-dioxaspiro[4.5]dec-3-en-2-one] |  |
|  | 5260 nM | 420 nM | Cc1cc(C)c(-c2ccc(Cl)cc2)cc1C1=C(O)C2(CCCOC2)OC1=O (centres unmarked) [2-46, 3-(4′-chloro-4,6-dimethylbiphenyl-3-yl)-4-hydroxy-1,7-dioxaspiro[4.5]dec-3-en-2-one] |  |
| 1170 nM | > 20000 nM |  | Cc1ccc(-c2cccc(Cl)c2)cc1C1=C(O)C2(CCCCC2)CC1=O [6-3, 3-(3′-chloro-4-methylbiphenyl-3-yl)-4-hydroxyspiro[4.5]dec-3-en-2-one] |  |
| 218 nM | 4630 nM |  | Cc1ccc(-c2ccc(Cl)cc2)cc1C1=C(O)C2(CCCC2)CC1=O [6-4, 3-(4′-chloro-4-methylbiphenyl-3-yl)-4-hydroxyspiro[4.4]non-3-en-2-one] |  |
